In ChEMBL document CHEMBL4266001, “Potent Antimalarial Activity of Two Arenes Linked with Triamine Designed To Have Multiple Interactions with Heme” (ACS Med Chem Lett, 2018):
Calls of active or inactive are those of the source. The rule behind the calls is not given here.

How the values were obtained:
Plasmodium berghei [1] = test: Antimalarial activity against Plasmodium berghei N infected in mouse assessed as mouse survival at 30 mg/kg, sc once daily for 4 consecutive days starting from 2 hrs post infection relative to control; type: functional
Plasmodium berghei [2] = test: Antimalarial activity against Plasmodium berghei N infected in mouse assessed as mouse survival at 30 mg/kg, po once daily for 4 consecutive days starting from 2 hrs post infection relative to control; type: functional
[3] = Selectivity index, ratio of cytotoxic concentration for human MRC5 cells to IC50 for chloroquine-resistant Plasmodium falciparum K1 infected in human erythrocytes
Plasmodium falciparum [4] = test: Antiplasmodial activity against chloroquine-resistant Plasmodium falciparum K1 infected in human erythrocytes measured after 72 hrs by malstat reagent based LDH release assay; type: functional, organism-based; conditions: K1, 72 h
[5] = Inhibition of Plasmodium falciparum FCR-3 HDP expressed in Escherichia coli assessed as reduction in hemazoin formation; parameters: species or system Plasmodium falciparum FCR-3/Gambia
Plasmodium falciparum [6] = test: Antiplasmodial activity against chloroquine-sensitive Plasmodium falciparum FCR-3 infected in human erythrocytes measured after 72 hrs by malstat reagent based LDH release assay; type: functional, organism-based; conditions: FCR-3/Gambia
Plasmodium berghei [7] = test: animal or person; type: functional; conditions: N, in Mus musculus, sc
[8] = Binding affinity to hemin at pH 5.2 by ITC
Plasmodium berghei [9] = test: animal or person; type: functional; conditions: N, in Mus musculus, po
Plasmodium berghei [10] = test: Antimalarial activity against Plasmodium berghei N infected in mouse assessed as mouse survival at 15 mg/kg, po once daily for 4 consecutive days starting from 2 hrs post infection relative to control; type: functional
Plasmodium berghei [11] = test: Antimalarial activity against Plasmodium berghei N infected in mouse assessed as inhibition of parasitemia at 15 mg/kg, po once daily for 4 consecutive days starting from 2 hrs post infection measured on day 4 post last dose relative to control; type: functional

SMILES | selectivity ratio [3] | IC50 (Plasmodium falciparum [4]) | IC50 (Plasmodium falciparum [6]) | also measured
CN(CCNC(=O)C=Cc1ccc2ccccc2c1)CCNc1ccnc2cc(Cl)ccc12 | 1200 | 0.028 µM | 0.012 µM | survival at 30 mg/kg (Plasmodium berghei [1]): 223%; survival at 30 mg/kg (Plasmodium berghei [2]): 100%; IC50 [5]: 0.012 µM; inhibition in vivo at 30 mg/kg (Plasmodium berghei [7]): 100%; Activity [8]: Active; inhibition in vivo at 30 mg/kg (Plasmodium berghei [9]): 23.5%
CN(CCNC(=O)C=Cc1cnc[nH]1)CCNc1ccnc2cc(Cl)ccc12 | > 14 | 18 µM | 0.75 µM | –
CN(CCCNc1ccnc2cc(Cl)ccc12)CCCNc1ccnc2cc(Cl)ccc12 | 66 | 0.021 µM | 0.097 µM | –
CN(CCNc1ccccn1)CCNc1ccnc2cc(Cl)ccc12 | 430 | 1.1 µM | 0.51 µM | –
CCN(CC)CCCC(C)Nc1ccnc2cc(Cl)ccc12 (stereo unspecified) [CHLOROQUINE] | – | – | – | IC50 [5]: 0.046 µM; Activity [8]: Active
CN(CCNc1ccc2ccccc2n1)CCNc1ccc2ccccc2n1 | 17 | 18 µM | 21 µM | –
CN(CCCNc1ccc2ccccc2n1)CCCNc1ccnc2cc(Cl)ccc12 | 61 | 0.037 µM | 0.00092 µM | IC50 [5]: 0.00092 µM; Activity [8]: Active
CN(CCNc1nccc2ccccc12)CCNc1ccnc2cc(Cl)ccc12 | 36 | 0.27 µM | 0.024 µM | –
CN(CCCNC(=O)C=Cc1ccc2ccccc2c1)CCCNc1ccnc2cc(Cl)ccc12 | 140 | 0.01 µM | 0.0049 µM | –
C[C@H]1[C@H](OC(=O)CCC(=O)O)O[C@@H]2O[C@@]3(C)CC[C@H]4[C@H](C)CC[C@@H]1[C@@]24OO3 [ARTESUNATE] | – | – | – | survival at 15 mg/kg (Plasmodium berghei [10]): 103%; inhibition in vivo at 15 mg/kg (Plasmodium berghei [11]): 95.2%
CN(CCNc1ccc2ccccc2n1)CCNc1ccnc2cc(Cl)ccc12 | 36 | 0.37 µM | 0.029 µM | –
CN(CCNc1nc2ccccc2[nH]1)CCNc1nc2ccccc2[nH]1 | 4.7 | 19 µM | 17.3 µM | –
CN(CCNc1ncccn1)CCNc1ccnc2cc(Cl)ccc12 | 40 | 0.75 µM | 0.21 µM | –
CN(CCNc1nc2ccccc2[nH]1)CCNc1ccnc2cc(Cl)ccc12 | 8.5 | 3.1 µM | 0.23 µM | –
CN(CCNC(=O)C=Cc1ccc2ccccc2n1)CCNc1ccnc2cc(Cl)ccc12 | 6 | 0.87 µM | 0.076 µM | –
